Broadly, the Km is the concentration of substrate that gives half-maximal velocity.

For data set [1], the system named is P. stutzeri clinical isolate 13. In words: Routine antibiogram by disk diffusion assay. Type of data set: cell-based, Pseudomonas stutzeri. The note with it: clinical isolate P. stutzeri 13 expressing DIM-1. How it is done: Bacterial strains. P. stutzeri clinical isolate 13 was identified with the API-20 NE system (BioMérieux, Marcy l'Etoile, France), and confirmed by rRNA sequencing. Escherichia coli TOP10 (In Vitrogen, Carlsbad, Calif.)was the host for cloning experiments (Poirel et al., 2001)
(§1) Susceptibility testing. Antibiotic-containing disks were used for routine antibiograms by the disk diffusion assay (Sanofi-Diagnostic Pasteur, Marnes-la-Coquette, France). The ESBL double-disk synergy test was performed with disks containing ceftazidime or cefepime and ticarcillin-clavulanic acid on Mueller-Hinton agar plates, and the results were interpreted as described previously (Poirel, Le Thomas et al., 2000). The carbapenemase detection was performed by using Etest carbapenem-containing strips (AB Biodisk, Solna, Sweden).
On the technique in general: In agar diffusion tests the substance spreads into inoculated agar from a disc or well.

Another data set concerns E. coli DH10B(pXD-1). In words: MICs by agar dilution technique. Type of data set: cell-based, Escherichia coli. The note with it: for β-lactam susceptibility from MICs: agar dilution, 37° C., 18 h; for restoration of susceptibility to penicillins on addition of inhibitor: clavulanic acid 2 μg/ml, tazobactam 4 μg/ml. How it is done: (§2) MICs were determined by an agar dilution technique with Mueller-Hinton agar (Sanofi-Diagnostic Pasteur) with an inoculum of 10^4 CFU/ml, as described previously (Poirel, Le Thomas et al., 2000). All plates were incubated at 37° C. for 18 h at ambient atmosphere. MICs of β-lactams were determined alone or in combination with a fixed concentration of clavulanic acid (2 μg/ml), tazobactam (4 μg/ml), and sulbactam (4 μg/ml). MIC results were interpreted according to the guidelines of the National Committee for Clinical Laboratory Standards (NCCLS) (CLSI).

Data set [2] deals with P. stutzeri 13. Kind of data set: MICs by agar dilution technique. In kind it is cell-based, Pseudomonas stutzeri. The note with it: for β-lactam susceptibility from MICs: agar dilution, 37° C., 18 h; for restoration of susceptibility to penicillins on addition of inhibitor: clavulanic acid 2 μg/ml, tazobactam 4 μg/ml. How it is done:
as §2

In another data set the target is carbapenemase DIM-1 (Stutzerimonas stutzeri, UniProt D5JGF6). Kind of data set: Kinetic measurements with purified carbapenemase (hydrolysis of β-lactams). In kind it is biochemical, P. stutzeri. The note with it: purified DIM-1, 30° C., 100 mM sodium phosphate pH 7.0. The source says:
(§3) Carbapenemase purification and isoelectric focusing (IEF) analysis. […] Carbapenemase was purified by ion-exchange chromatography.

For data set [3], the system named is P. stutzeri 13. Kind of data set: Carbapenemase detection with Etest carbapenem-containing strips. Type of data set: cell-based, Pseudomonas stutzeri. The note with it: imipenem alone vs with EDTA. Here is the method:
as §1

Data set [4] relates to CC(C)(O/N=C(\C(=O)N[C@@H]1C(=O)N2C(C(=O)[O-])=C(C[n+]3ccccc3)CS[C@H]12)c1csc(N)n1)C(=O)O. In words: Kinetic measurements with purified carbapenemase (hydrolysis of β-lactams). In kind it is biochemical, P. stutzeri. The note with it: other: purified DIM-1, 30° C., 100 mM sodium phosphate pH 7.0.
Text: as §3

Data set [5] in a line: Specific activity of purified carbapenemase (imipenem hydrolysis). Type of data set: biochemical. The note with it: purified enzyme; 1 U = 1 μmol of imipenem hydrolyzed per min per mg of protein. Here is the method: The specific activity of the purified carbapenemase from E. coli DH10B(pXD-1) was obtained as described previously (Poirel et al., 1999). One unit of enzyme activity was defined as the activity which hydrolyzed 1 μmol of imipenem per min per mg of protein. The total protein content was measured with the DC Protein assay kit (Bio-Rad, Ivry-sur-Seine, France).

With `NCC[C@H](O)C(=O)N[C@@H]1C[C@H](N)[C@@H](O[C@H]2O[C@H](CN)[C@@H](O)[C@H](O)[C@H]2O)[C@H](O)[C@H]1O[C@H]1O[C@H](CO)[C@@H](O)[C@H](N)[C@H]1O` [amikacin], the “susceptibility of P. stutzeri 13” value in data set [1] was “susceptible”.
As to `C[C@H]1[C@H](NC(=O)/C(=N\OC(C)(C)C(=O)O)c2csc(N)n2)C(=O)N1S(=O)(=O)O` [aztreonam], the “β-lactam susceptibility from MICs” value in the data set on E. coli DH10B(pXD-1) and with P. stutzeri 13 [2] was “spared” in each case. The “hydrolysis by DIM-1 (relative hydrolysis rates, substrate profile)” value (from here on “relative hydrolysis rates”) at carbapenemase DIM-1 is on record as “excluding”. In data set [1], the “susceptibility of P. stutzeri 13” value was “fully susceptible”.
Consider `CO/N=C(\C(=O)N[C@@H]1C(=O)N2C(C(=O)[O-])=C(C[N+]3(C)CCCC3)CS[C@H]12)c1csc(N)n1` [cefepime], for which the “susceptibility of P. stutzeri 13” value in data set [1] is “reduced susceptibility”.
With `CO/N=C(\C(=O)N[C@@H]1C(=O)N2C(C(=O)O)=C(COC(C)=O)CS[C@H]12)c1csc(N)n1` [cefotaxime], the “relative hydrolysis rates” value at carbapenemase DIM-1 is recorded as “hydrolyzed at a similar level as benzylpenicillin”.
Still for that read-out and setting: as for `CO[C@@]1(NC(=O)Cc2cccs2)C(=O)N2C(C(=O)O)=C(COC(N)=O)CS[C@@H]21` [cefoxitin], the entry is “good substrate”.
For the molecule `CO/N=C(\C(=O)N[C@@H]1C(=O)N2C(C(=O)[O-])=C(C[n+]3cccc4c3CCC4)CS[C@H]12)c1csc(N)n1` [cefpirome], the “susceptibility of P. stutzeri 13” value in data set [1] was “reduced susceptibility”.
In the case of `CC(C)(O/N=C(\C(=O)N[C@@H]1C(=O)N2C(C(=O)[O-])=C(C[n+]3ccccc3)CS[C@H]12)c1csc(N)n1)C(=O)O` [ceftazidime], on carbapenemase DIM-1, the “relative hydrolysis rates” value is given as “well hydrolyzed”. Also, in data set [1], the “susceptibility of P. stutzeri 13” value is “reduced susceptibility”.
On to `O=C(N[C@H](CO)[C@H](O)c1ccc([N+](=O)[O-])cc1)C(Cl)Cl` [chloramphenicol], for which the “susceptibility of P. stutzeri 13” value in data set [1] is listed as “resistant”.
Turning to `O=C(O)[C@H]1/C(=C/CO)O[C@@H]2CC(=O)N21` [clavulanic acid], the “restoration of susceptibility to penicillins on addition of inhibitor” value in the data set with E. coli DH10B(pXD-1) and in the data set on P. stutzeri 13 [2] was “did not restore any susceptibility to penicillins” each time.
Take `C[C@@H](O)[C@H]1C(=O)N2C(C(=O)O)=C(SCCN=CN)C[C@H]12` [imipenem]: in the data set with P. stutzeri 13 [3], the “MIC (carbapenem-containing E-test)” value was 64 µg/mL.
On to `C[C@@H](O)[C@H]1C(=O)N2C(C(=O)O)=C(S[C@@H]3CN[C@H](C(=O)N(C)C)C3)[C@H](C)[C@H]12` [meropenem], for which the “β-lactam susceptibility from MICs” value with E. coli DH10B(pXD-1) and in the data set on P. stutzeri 13 [2] was “reduced susceptibility” in each case.
As for `CCN[C@@H]1C[C@H](N)[C@@H](O[C@H]2OC(CN)=CC[C@H]2N)[C@H](O)[C@H]1O[C@H]1OC[C@](C)(O)[C@H](NC)[C@H]1O` [netilmicin], the “susceptibility of P. stutzeri 13” value in data set [1] is “susceptible”.
For `CCN1CCN(C(=O)N[C@@H](C(=O)N[C@@H]2C(=O)N3[C@@H]2SC(C)(C)[C@@H]3C(=O)O)c2ccccc2)C(=O)C1=O` [piperacillin], the “susceptibility of P. stutzeri 13” value in data set [1] is “resistant”.
As to `C[C@]1(Cn2ccnn2)[C@H](C(=O)O)N2C(=O)C[C@H]2S1(=O)=O` [tazobactam], the “restoration of susceptibility to penicillins on addition of inhibitor” value in the data set with E. coli DH10B(pXD-1) and in the data set on P. stutzeri 13 [2] was “did not restore any susceptibility to penicillins” throughout.
Regarding `CC1(C)S[C@@H]2[C@H](NC(=O)[C@H](C(=O)O)c3ccsc3)C(=O)N2[C@H]1C(=O)O` [ticarcillin], in data set [1], the “susceptibility of P. stutzeri 13” value is reported as “resistant”.
Take `NC[C@H]1O[C@H](O[C@H]2[C@H](O)[C@@H](O[C@H]3O[C@H](CO)[C@@H](O)[C@H](N)[C@H]3O)[C@H](N)C[C@@H]2N)[C@H](N)C[C@@H]1O` [tobramycin]: the “susceptibility of P. stutzeri 13” value in data set [1] was “resistant”.
For the molecule “carbapenemase DIM-1 (Stutzerimonas stutzeri)”, the Km in data set [4] turned out to be 50 µM.
As to colistin, in data set [1], the “susceptibility of P. stutzeri 13” value is “susceptible”.
Still for that read-out and setting: as for gentamicin, the entry is “resistant”; as for piperacillin-tazobactam, “resistant”.

B1: DIM-1: Ambler class B carbapenemase (Dutch IMipenemase) from P. stutzeri 13, SEQ ID NO:1 (protein, listed as Pseudomonas stutzeri)
chain: MRTHFTALLLLFSLSSLANDEVPELRIEKVKENIFLHTSYSRVNGFGLVSSNGLVVIDKGNAFIVDTPWSDRDTETLVHWIRKNGYELLGSVSTHWHEDRTAGIKWLNDQSISTYATTSTNHLLKENKKEPAKYTLKGNESTLVDGLIEVFYPGGGHTIDNVVVWLPKSKILFGGCFVRSLDSEGLGYTGEAHIDQWSRSAQNALSRYSEAQIVIPGHGKIGDIALLKHTKSLAETASNKSIQPNANASAD
For B1, the specific activity in data set [5] was 21 U.mg of protein^−1.

These data come from patent publication US20120219952A1, “CARBAPENEMASE AND ANTIBACTERIAL TREATMENT” (priority 2009, published 2012).
